Data as given in a melting point compilation (Tetko et al.; mined from patent text by program, amines drawn as free bases though some values may be those of a salt).

melting point [°C]	Compound
105	CCCc1nc(C=O)c(C(=O)OCC)n1Cc1cc2c(cc1Cl)OCO2
118 to 120	CCN(CCSCc1[nH]cnc1C)C(=N)NC#N
81 to 82	C#CCOc1nc(-c2ccc(OC)cc2)n(-c2ccc(OC)cc2)n1
216 to 219	COc1nc2cc(Cl)c(Cl)cc2nc1S(C)(=O)=O
106 to 108	CC(C)Oc1cc(CCCOc2nc(Cc3ccccc3)sc2CC(=O)O)n(Cc2ccc(Cl)cc2Cl)n1
126 to 128	CCCCc1oc2ccccc2c1-c1ccc(-c2ccc(OCC(=O)O)cc2)cc1
178 to 179	CC(C)(CNc1ccnc2cc(Cl)ccc12)NCc1ccc(Cl)c(Cl)c1
110 to 113	O=[N+]([O-])C1(CNC(CO)(CO)CO)CCCCC1
271 to 272	CSc1ccccc1-c1[nH]c2cccc3c2c1CCNC3=O
137 to 138	CCCCCCCCC(SCCCCCC)C(=O)Nc1c(SC)ccc2ncc(C)cc12 (stereo not drawn)
96 to 97	Cc1sc(S(C)=O)nc1-c1ccccc1 (stereo not drawn)
195 to 196	O=C(NO)c1ccc(I)cc1O
201 to 203	CCOC(=O)c1cc(O)n2c(C)nnc2n1
126 to 128	COc1cc(C)c(C(=O)c2c(Cl)cccc2Cl)cc1OC(F)F
188 to 191	CCC(=O)Oc1ccc(NCc2c(F)c(F)c(C(F)(F)F)c(F)c2F)cc1C(=O)O
118 to 120	COc1cc(OC)cc(N2CCN(C(=O)N(CC3CC3)c3cc4ccccc4nc3OC)CC2)c1
132 to 133	CC(=O)Oc1ccc(Nc2nc(N)ncc2Oc2ccc(Cl)cc2)cc1
93 to 95	CCCc1c(OCC(O)COc2ccc(C(=O)O)cc2Br)ccc(C(C)=O)c1O (stereo not drawn)
48 to 49	CCN(CC)C(=O)c1c(C)cccc1Cl
200 to 202	Nc1c(Br)cc(C(=O)CCC(=O)O)cc1Br
108 to 112	Cn1ccnc1-c1ccc(OCC(O)CNCCOc2ccc(O)c(C(N)=O)c2)cc1 (stereo not drawn)
123 to 126	O=C(O)c1ccc(NCCCCCCCc2ccccc2)cc1
172 to 175	CSc1ccccc1-c1ccc(C(=O)N2Cc3ccc(C(=O)NCc4cccnc4)n3Cc3ccccc32)cc1
258 to 260	CC(=O)Nc1cnn2c(C)nc3ccccc3c12
198 to 200	COc1ccc(CS[C@@H]2CN[C@H](C(=O)O)C2)cc1

melting point [°C]	Compound
108	Cc1cc(C(=O)N2Cc3ccc(C(=O)N4CCN(C)CC4)n3Cc3ccccc32)ccc1C1=CCCc2ccccc21
153 to 154	CC1(C)Cc2cccc(Oc3c(Cl)cc(NC(=S)NC(=O)c4c(F)cccc4F)cc3Cl)c2O1
198 to 201	Nc1nc2c(ncn2COCCCOC(=O)c2ccccc2)c(=O)[nH]1
147 to 149	Cc1nc(CCCCCCC(=O)O)c(C(=O)O)s1
153 to 154	COC1CCN(S(=O)(=O)c2ccc(S(N)(=O)=O)cc2)CC1
80 to 82	COC(=O)CCn1cc(Cc2cccnc2)c2c(CCC(=O)OC(C)(C)C)cccc21
270	O=C(Nc1c(Cl)cncc1Cl)c1ccc(OC(F)F)c2oc3ccccc3c12
260 to 261	CC1(C)CC(N2CCCC2)=CC(=C(C#N)S(C)(=O)=O)C1
155 to 160	CCCNC(=O)CP(=O)(O)O
279	Cc1ccc(S(=O)(=O)Nc2ccc3c(=O)c4c(sc3c2)CC(C)(C)CC4)cc1
141 to 143	C=Cc1ccc(CN2C(=O)c3ccccc3C2=O)c(Cl)c1
199 to 200	O=C(O)Cc1cn(CCc2ccc(OCc3ccccc3)cc2)nc1-c1ccccc1
144 to 146	CC(C)(C)C(=O)NCCc1ccc(O)c(O)c1
94 to 97	CC(C)OC(=O)c1nsc2ccc(-n3c(=O)cc(C(F)(F)F)n(C)c3=O)cc12
144 to 145	CCCCCCCCCCCC(=O)Nc1ccc(NC(=O)CCNC(=O)C2OC(C)(C)OCC2(C)C)cc1 (stereo not drawn)
58 to 61	NCCn1c(-c2ccc(Br)cc2)csc1=Nc1ccccc1
219 to 221	O=C(O)[C@@H]1Cc2ccccc2N1C(=O)CN1CCN(Cc2ccc(Cl)cc2)CC1
27 to 29	CCCCCCOCCCCCCCCCCCSCCCO
118 to 120	Nc1nc2ccccc2c2c1nc(-c1ccccc1)n2CCCCNC(=S)Nc1cccnc1
171 to 173	NC(=NCC(F)(F)F)Nc1cnn(-c2cccc(C(=O)NCCO)c2)n1
98 to 100	COc1ccc(S(=O)(=O)c2ncoc2C(C)C)cc1
127 to 129	COc1ccc(C2Sc3ccc(OC)cc3N(CCN(C)C)C(=O)C2O)cc1 (stereo not drawn)
221 to 223	Nc1cccc2ccc(C(=O)O)cc12
152 to 156	O=C(O)CN1CCN(C(=O)c2cc(C(F)(F)F)cc(C(F)(F)F)c2)[C@H](Cc2c[nH]c3ccccc23)C1
89 to 91	O=C(O)C1Cc2ccccc2CN1C(=O)c1ccc(F)c(F)c1 (stereo not drawn)

melting point [°C]	Compound
285 to 287	O=c1[nH]c(COc2ccc(Cl)c(Cl)c2)nc2nccnc12
79.5 to 80.5	CCCCCCCCNCC(O)COc1ccc(SC)cc1 (stereo not drawn)
189 to 191	O=C(NC1CCN(CCc2ccc3ccccc3c2)CC1)c1ccccc1
79 to 80	COC(=O)CS(=O)(=O)C(C)c1ccc(-c2ccccc2)cc1 (stereo not drawn)
> 190	CC(C)S(=O)(=O)c1cc(OCCc2ccccn2)c2[nH]nc(Nc3ncc(CN4CCOCC4)s3)c2c1
145 to 146	Cc1c(C)c2c(c(C)c1O)CCC(C)(C(=O)NN(C)C)O2 (stereo not drawn)
207 to 208	Cc1ccc(-n2c(-c3ccccc3)ccc2-c2ccccc2)cc1
80	COC(=O)C1Cc2c(OC)cccc2N1S(=O)(=O)c1ccc(-c2ccc(F)cc2Cl)cc1 (stereo not drawn)
102 to 104	CC(C)(C)OC(=O)N1CCn2c(c(C(N)=O)c(Cl)c2C2CC2)C1
> 200	Cc1nc(N2CCN(Cc3ccc(Cl)cc3)C2=O)sc1C(N)=O
75 to 77	O=S(=O)(Nc1cccc(I)c1)C(F)(F)F
190	COc1ccc(Cl)cc1C(=O)NCCc1ccc(Br)c(S(N)(=O)=O)c1
230 to 232	Cc1ccc(-c2ccccc2C(=O)Nc2ccc(C(=O)N3C[C@@H]4CCCN4C(=O)c4ccccc43)cc2)cc1
85	CN(CCOc1cccc(Cl)c1CN)Cc1ccccc1
107 to 108	c1ccc(CN2CCC(Oc3cnccn3)(c3ccccc3)CC2)cc1
119 to 121	Cc1ccc(-n2nc(C)c(CC(=O)O)c2C)cc1
200	Cn1cnnc1C(O)(c1ccc(Cl)cc1)c1ccc2c(c1)c(CCc1cccc(Cl)c1)cc(=O)n2C (stereo not drawn)
208 to 210	CCCC(NC(=O)CN1C(=O)N(c2ccc(C)cc2)C2(CCCCC2)C1=O)c1ccccc1 (stereo not drawn)
168 to 169	O=C(Nc1ccc2c(c1)c1ccccc1n2CCO)c1ccccc1Cl
138 to 140	CCOC(=O)c1cnc2[nH]c(-c3cc(OCc4ccccc4)ccc3OC(C)C)nc2c1
141	Cn1nc(C(F)F)[nH]c1=O
116	COc1ccc(-c2ccc(NN)nn2)cc1OC(C)C
80 to 83	CC(C)(C)NC(=O)C(NC(C)(C)C)=C1CCCC1
145 to 146	COCn1ccnc1C(O)(c1ccc(Cl)cc1)c1ccc(Cl)cc1
96 to 98	CCCCc1nc(O)cc(COC)n1

melting point [°C]	Compound
63 to 64	CCC(=O)C1C(=O)CC(c2ccccc2Cl)CC1=O (stereo not drawn)
174 to 175	NC(=S)Nc1cc(Cl)ccc1N1CCOCC1
302 to 303	CC(C)(C)Nc1c(NCc2ccc(Cl)c(Cl)c2)c(=O)c1=O
117 to 120	Cc1ccc2c3c(ccc2n1)OC[C@H](CNCCCc1csc2ccc(F)cc12)O3
165 to 166	CCCCCOc1cc(C(=O)O)c2c(c1)C(=O)CC2
173 to 174	O=S(=O)(Nc1ccc2oncc2c1)c1cc(Cl)ccc1Cl
223 to 225	CC1(COc2ccc(CC3SC(=O)NC3=O)cc2)CCc2cc(C(=O)O)ccc2O1 (stereo not drawn)
160 to 162	CCc1cc(NC2=NCCN2C(C)=O)n(C)n1
113 to 116	O=C(CCOc1cccc(-c2ccccc2)c1)NO
165 to 167	COc1ccc(OC)c2c(Cl)c(C#N)cnc12
215 to 217	O=[N+]([O-])c1oc2ccc(-c3nnn[nH]3)cc2c1-c1ccccc1
138 to 140	CCCNC(=O)C1=C(C(=O)Nc2cc(OC3CCCC3)c(Cl)cc2F)CCCC1
115 to 120	COc1ccccc1NC(=O)Nc1nc(Nc2ccccc2-c2ccccc2)nc(N(CC(=O)O)Cc2ccc(OC)c(OC)c2)n1
239 to 245	O=C1NC(c2ccc(Cl)cc2)c2ccccc2C1CCN1CCOCC1 (stereo not drawn)
216 to 218	Cc1cccc2c(Cc3nc4c(F)c(F)cc(F)c4s3)cn(CC(=O)O)c12
38 to 39	ClCC1OCC(OCc2ccccc2)CO1 (stereo not drawn)
167 to 168	Cc1ccc(C2=C(c3ccc(S(C)(=O)=O)cc3)OC(C)(C)C2=O)cc1
208 to 209	CCCc1nc2c(N)nc3ccccc3c2n1CCc1cc(-c2ccc(F)cc2)no1
270 to 276	CC1(N)CN(c2cc3c(cc2F)c(=O)c(C(=O)O)cn3-c2ccc(F)cc2)C1
200 to 202	O=C(Nc1cccc(C(F)(F)F)c1)c1cccnc1NCc1ccc(=O)[nH]c1
98	Oc1ccc2ccc(Oc3c(Cl)cc(C(F)(F)F)cc3Cl)cc2c1
75 to 76	Cc1cc(C=O)cc(C)c1N
176 to 180	CCOc1ccc2c(c1)C(c1ccccc1Cl)C(=O)N2 (stereo not drawn)
80 to 82	C=C(Br)n1ccnc1[N+](=O)[O-]

Compound	melting point [°C]
COc1cccc(C2(C(C)(C)O)CCN(C)CC2)c1OC	97
COc1nc(C(=O)O)ccc1CN1CC1C#N (stereo not drawn)	96 to 97
COc1ccc(C(=O)P2(=O)Oc3ccccc3-c3ccccc32)c(OC)c1 (stereo not drawn)	112 to 115
CC(C)N(CCC(C(N)=O)(c1ccccc1)C1CCCCN1)C(C)C (stereo not drawn)	107 to 108
